Assay results as given in patent US7090863B2, “Hypocholesterolemic composition and methods of use” (Inpharma S.A., priority 2001, dated 2006).

System: normocholesterolemic healthy male subjects
Test: Example 1 first phase: plasma lipoprotein variations after 15 days of soy bean proteins, β-sitosterol or their combination
Type: in vivo, human
Conditions: in rapport to post-seven days of stabilisation diet values
Description: For the first phase, 18 normocholesterolemic healthy male subjects (mean age: 32.5±8 years) have been enrolled. All subjects followed a stabilisation diet period of seven days during which they received some advises concerning their nourishment (according to the American Heart Association recommends), without any radical modification of their diet customs. A dietician monitored the patient dietary pattern trough the “Seven days questionnaire” for all the experimental duration. Patients were imposed to stop any nutritional supplementation. After this period, all subjects ingested for fifteen days 400 mg β-sitosterol two times/day (6 subjects), 1600 mg soy bean proteins two times/day (6 subjects) or a low dosage product containing soy proteins supplemented in β-sitosterol in a rapport 4:1 (offered and patented by Inpharma SA, Lugano, Switzerland), 2 g two times/day (6 subjects).
The hematochemistry measurements have been carried out on venous blood coming from antecubital harm vein, after 12 fasting hours after the stabilisation diet period and at the end. Blood has been collected into tubes […] heparin or other anticoagulant, plasma was immediately separated by high-speed centrifugation at 3500×g for twenty minutes. TC, HDL-C, TG, Glucose, and Uric acid have been determined with standardised enzymatic […] methods (Gaddi et al., 2001). LDL-C plasma level has been estimated with the Friedewald's formula [LDL-C=TC-(TG/5+HDL-C)], for TG<350 mg/dL.
Data have been sampled in a specific database and analysed with the help of the SPSS 8.0 statistical software. A normality Shapiro-Wilks test has been carried out on all the tested variables, followed by ANOVA and two-tails t-test for paired samples, when possible, and by a post-hoc Tukey's test. Percentages have been compared with the Fisher's exact test. Correlation degree between baseline plasma lipid levels and reduction obtained with the treatment were estimated with a Pearson's bivariate correlation test followed by linear regression. For all tests a “p” level less than 0.05 has been considered as significant.

With `CC[C@H](CC[C@@H](C)[C@H]1CC[C@H]2[C@@H]3CC=C4C[C@@H](O)CC[C@]4(C)[C@H]3CC[C@]12C)C(C)C` [β-sitosterol] the “Apolipoprotein Al variation” value was −0.1%, the “Apolipoprotein B variation” value was −0.3% and the “High Density Lipoproteins variation” value was “+0.3%”. For the same compound, the “Low Density Lipoproteins variation” value was −4.9%, the “Total Cholesterol variation” value was −3.2% and the Tryglycerides variation was −0.1%. The “Very Low Density Lipoproteins variation” value was −0.2%.
